Entries after “also recorded” stand apart in the source; their conditions may differ. Each block holds one substance with its values, some of them ahead of it. Non-standard residues stand in square brackets, D forms with d. Primed or numbered codes have the meaning given here. No end group written: not given here. PEG8′ = not defined here; Aib = CC(C)(N)C(=O)O
Assays:
[1] = CD (circular dichroism) spectroscopy of α-helix structure; type: physicochemical; details: for α-helix structure (in words): from CD spectra
Experimental: To evaluate the structures of a linear plasmid DNA and peptides, CD spectra were analyzed using a Chirascan CD spectrometer (Applied Photophysics, UK). […] The final concentration of the linear plasmid DNA was 30 ng/μL. All the samples were dissolved in H2O. For the formation of the artificial chromosome, a mixture of the peptide and the DNA was incubated for 12 days or longer. Scanning was performed using a 2-mm path-length cuvette. Each scan was repeated three times and averaged. MRE (mean residue ellipticity) was calculated based on the number of amino acid residues.
CD (circular dichroism) spectroscopy was performed as follows.
The CD spectra were analyzed using a Chirascan CD spectrometer (Applied Photophysics, UK). […] All the samples were dissolved in H2O. Each scan was repeated three times using a 2-mm path-length cuvette and averaged. MRE (mean residue ellipticity) was calculated based on the number of amino acid residues.

[2] = AFM analysis of self-assembled peptide complexes; type: physicochemical; details: for Average diameter (nm) / AFM morphology: Table 12, self-assembled structure; for AFM morphology: 25 μM in distilled water
Experimental: AFM was performed using an NX10 system (Park Systems, Korea) in a non-contact mode with PPP-NCHR AFM probes (Nanosensors, Switzerland). The DNA concentration ranged from 1 to 30 ng/μL and the peptide concentration ranged from 1 to 32 μM (in H2O). 2 μL of the sample solution was cast onto a freshly cleaved mica surface and dried. The data obtained by the SmartScan program (Park Systems, Korea) was analyzed using the XEI program (Park Systems, Korea).
The CD spectroscopy was performed in the same manner as in Test Example 2 and the AFM was performed using the NX10 system (Park Systems, Korea) in a non-contact mode with PPP-NCHR AFM probes (Nanosensors, Switzerland). The peptide complex concentration ranged from 1 to 32 μM (in H2O). 2 μL of the sample solution was cast onto a freshly cleaved mica surface and dried. The data obtained by the SmartScan program (Park Systems, Korea) were analyzed using the XEI program (Park Systems, Korea).
The peptide complexes of Examples 37-40 were imaged by AFM. 25 μM of the peptide complex was dissolved in distilled water, sonicated for 5 minutes, incubated overnight and dropped on mica for measurement.

[3] = Table 10, hydrophobic peptides of Examples 1-36
[4] = Table 11, peptide complexes of Examples 37-97
[5] = Table 9, linear and cyclic αm-PEG10 peptide complexes, in H2O
[6] = Table 13, cyclic peptide complexes
[7] = Table 14, coil-rod-coil peptide complexes

Substance: AUAUAUAUA [Example 2]
θ222 nm/θ208 nm ratio [1, 3]: 0.72

Substance: RRRAUAUAUAUAUAUAUAUAUAUAGRGDRGDRGDG (RRRA[Aib]A[Aib]A[Aib]A[Aib]A[Aib]A[Aib]A[Aib]A[Aib]A[Aib]A[Aib]AGRGDRGDRGDG) [Example 69]
θ222 nm/θ208 nm ratio [1, 4]: 0.88 | Average diameter (nm) [2]: 40-260 nm | AFM morphology [2]: Vesicle

Substance: RGDRGDRGDAUAUAUAUAUAUAUAUAUAUARR [Example 74]
θ222 nm/θ208 nm ratio [1, 4]: 1.11

Substance: RRAUAUAUAUAUAUAUAUAUAUA(PEG8)2 [Example 61]
θ222 nm/θ208 nm ratio [1, 4]: 1.13 | Average diameter (nm) [2]: 90-250 nm | AFM morphology [2]: Vesicle

Substance: WAUAUAUAUAUAUAU(PEG2)5 [Example 101]
[θ]222/[θ]208 [1, 5]: 1.01 | [θ]222/[θ]208 [1, 6]: 1.01

Substance: AUAUAUAUAUAUAUAUAUAUA(PEG8)2 [Example 54]
θ222 nm/θ208 nm ratio [1, 4]: 1.2 | Average diameter (nm) [2]: 20-90 nm | AFM morphology [2]: Micelle, vesicle

Substance: AUAUAUAUAUAUAUAUAUAUA [Example 14]
θ222 nm/θ208 nm ratio [1, 3]: 1.26 | α-helix structure (in words) [1]: monomeric, nonpolar and perfect α-helix (MNP-helix) structure

Substance: Example 45: peptide complex (Wαm-RGD, Wαm-GS), SEQ ID NO 45 (A[Aib]A[Aib]A[Aib]A[Aib]A[Aib]A[Aib]A[Aib]A[Aib]A[Aib]A[Aib]AGSGSGSGSG)
θ222 nm/θ208 nm ratio [1, 4]: 1.09

Substance: WAUAUAUAUAUAUAUAUAU(PEG2)5 [Example 51]
θ222 nm/θ208 nm ratio [1, 4]: 1.19

Substance: RAUAUAUAUAUAUAUAUAUAUAGRGDRGDRGDG [Example 66]
θ222 nm/θ208 nm ratio [1, 4]: 0.91 | Average diameter (nm) [2]: 20-30 nm | AFM morphology [2]: Micelle

Substance: WAUAUAUAU(PEG2)5 [Example 46]
θ222 nm/θ208 nm ratio [1, 4]: 0.72

Substance: RAUAUAUAUA(PEG8)2 (RA[Aib]A[Aib]A[Aib]A[Aib]A-{PEG8′-PEG8′-NH2}) [Example 58]
θ222 nm/θ208 nm ratio [1, 4]: 0.36 | AFM morphology [2]: Not assembled

Substance: Example 38: peptide complex (Wαm-RGD), SEQ ID NO 38 (L[Aib]L[Aib]L[Aib]L[Aib]LGRGDRGDG)
θ222 nm/θ208 nm ratio [1, 4]: 0.44 | self-assembly behavior in an aqueous solvent ([2]; AFM): spherical particles | Average diameter (nm) [2]: 50-200 nm | AFM morphology [2]: Vesicle

Substance: Example 40: peptide complex (Wαm-RGD), SEQ ID NO 40 (AXAXAXAXAXAXAXAXAXAXAGRGDRGDG; RGD peptides; SITE 2 2-aminoisobutyric acid; SITE 4 2-aminoisobutyric acid; SITE 6 2-aminoisobutyric acid; SITE 8 2-aminoisobutyric acid; SITE 10 2-aminoisobutyric acid; SITE 12 2-aminoisobutyric acid; SITE 14 2-aminoisobutyric acid; SITE 16 2-aminoisobutyric acid; SITE 18 2-aminoisobutyric acid; SITE 20 2-aminoisobutyric acid)
θ222 nm/θ208 nm ratio [1, 4]: 0.99 | α-helix structure (in words) [1]: most perfect α-helix structure | average diameter ([2]; AFM): 20 nm | self-assembly behavior in an aqueous solvent ([2]; AFM): self-assembled into spherical particles such as micelles; also recorded: micelle particles | length of micelle particles ([2]; AFM, FIG. 80): 7.2-12.4 nm | Average diameter (nm) [2]: 20-30 nm | AFM morphology [2]: Micelle

Substance: WAUAUAUAUAUGHHHHHHHHHHGRGDRGDRGDG [Example 105]
[θ]222/[θ]208 [1, 6]: 0.38

Substance: RGDRGDAUAUAUAUAUAUAUAUAUAUARR [Example 73]
θ222 nm/θ208 nm ratio [1, 4]: 1.1

Substance: EEAUAUAUAUAUAUAUAUAUAUA(PEG8)2 [Example 91]
θ222 nm/θ208 nm ratio [1, 4]: 1.18 | Average diameter (nm) [2]: 20-30 nm | AFM morphology [2]: Micelle

Substance: AUAUAUAUA(PEG8)2 [Example 52]
θ222 nm/θ208 nm ratio [1, 4]: 0.54 | AFM morphology [2]: Not assembled

Substance: Example 43: peptide complex (Wαm-RGD, Wαm-GS), SEQ ID NO 43 (AXAXAXAXAXAXAXAXAXAXAGSGSG; SITE 2 2-aminoisobutyric acid; SITE 4 2-aminoisobutyric acid; SITE 6 2-aminoisobutyric acid; SITE 8 2-aminoisobutyric acid; SITE 10 2-aminoisobutyric acid; SITE 12 2-aminoisobutyric acid; SITE 14 2-aminoisobutyric acid; SITE 16 2-aminoisobutyric acid; SITE 18 2-aminoisobutyric acid; SITE 20 2-aminoisobutyric acid)
θ222 nm/θ208 nm ratio [1, 4]: 1.15

Substance: (PEG8)2 AUAUAUAUA [Example 55]
θ222 nm/θ208 nm ratio [1, 4]: 0.58 | AFM morphology [2]: Not assembled

Substance: (PEG8)2 AUAUAUAUAUAUAUA [Example 56]
θ222 nm/θ208 nm ratio [1, 4]: 1.11 | Average diameter (nm) [2]: 20-40 nm | AFM morphology [2]: Micelle

Substance: RRRRAUAUAUAUAUAUAUAUAUAUA(PEG8)2 (RRRRAXAXAXAXAXAXAXAXAXAXA; (PEG8)2 C-terminal; SITE 6 2-aminoisobutyric acid; SITE 8 2-aminoisobutyric acid; SITE 10 2-aminoisobutyric acid; SITE 12 2-aminoisobutyric acid; SITE 14 2-aminoisobutyric acid; SITE 16 2-aminoisobutyric acid; SITE 18 2-aminoisobutyric acid; SITE 20 2-aminoisobutyric acid; SITE 22 2-aminoisobutyric acid; SITE 24 2-aminoisobutyric acid) [Example 63]
θ222 nm/θ208 nm ratio [1, 4]: 1.03 | self-assembly behavior in an aqueous solvent ([2]; AFM): self-assembles into spherical particles | Average diameter (nm) [2]: 20-50 nm | AFM morphology [2]: Micelle

Substance: WAUAUAUAUGHHHHHHHHHHGRGDRGDRGDG [Example 104]
[θ]222/[θ]208 [1, 6]: 0.2

Substance: AUAUAUAUAUAUAUA [Example 8]
θ222 nm/θ208 nm ratio [1, 3]: 1.13

Substance: EAUAUAUAUAUAUAUAUAUAUARGDRGDRGD (EA[Aib]A[Aib]A[Aib]A[Aib]A[Aib]A[Aib]A[Aib]A[Aib]A[Aib]A[Aib]ARGDRGDRGD) [Example 94]
θ222 nm/θ208 nm ratio [1, 4]: 1.06

Substance: RGDRGDRGDRGDAUAUAUAUAUAUAUAUAUAUARR [Example 75]
minimum at 222 and 208 nm in the spectra ([1]; Table 11): no minimum was observed

Substance: WAUAUAUAUAUAU(PEG2)5 [Example 48]
[θ]222/[θ]208 [1, 5]: 0.88 | θ222 nm/θ208 nm ratio [1, 4]: 0.88

Substance: WAUAUAUAUAUAUAU(PEG2)5 [Example 49]
[θ]222/[θ]208 [1, 5]: 1.05 | θ222 nm/θ208 nm ratio [1, 4]: 1.05

Substance: RGDRGDRGDRGDAUAUAUAUAUAUAUAUAUAUAR [Example 72]
minimum at 222 and 208 nm in the spectra ([1]; Table 11): no minimum was observed

Substance: WAUAUAUAUAUAUAUAU(PEG2)5 [Example 50]
[θ]222/[θ]208 [1, 5]: 1.10 | θ222 nm/θ208 nm ratio [1, 4]: 1.10

Substance: WAUAUAUAUAUAUAUAUAU(PEG2)5 [Example 103]
[θ]222/[θ]208 [1, 6]: 1.21

Substance: RAUAUAUAUAUAUAUAUAUAUAGRGDRGDRGDRGDG [Example 67]
minimum at 222 and 208 nm in the spectra ([1]; Table 11): no minimum was observed

Substance: WAUAUAUAUAUAU(PEG2)5 [Example 100]
[θ]222/[θ]208 [1, 5]: 0.95 | [θ]222/[θ]208 [1, 6]: 0.95

Results, then the substance that gave them:

[θ]222/[θ]208 [1, 7]: 1.06
Substance: (PEG8)2AUAUAUAUAUAUAUAUAUAUA(PEG8) [Example 122]

[θ]222/[θ]208 [1, 6]: 0.95
Substance: (PEG2)5RRRRRR(PEG2)5WAUAUAUAUAUAUAUAU [Example 111]

[θ]222/[θ]208 [1, 7]: 1.04
Substance: (PEG8)AUAUAUAUAUAUAUAUAUAUA(PEG8)2 [Example 121]

[θ]222/[θ]208 [1, 7]: 0.6
Substance: (PEG8)2AUAUAUAUA(PEG8)2 [Example 123]

[θ]222/[θ]208 [1, 6]: 0.65
Substance: WAUAUAUAUAUAUGHHHHHHHHHHGRGDRGDRGDG [Example 106]

[θ]222/[θ]208 [1, 7]: 1.2
Substance: (PEG10)2AUAUAUAUAUAUAUAUAUAUA(PEG10)2 [Example 127]

[θ]222/[θ]208 [1, 6]: 0.89
Substance: WAUAUAUAUAUAUAUAUAUGHHHHHHHHHHGRGDRGDRGDG [Example 109]

[θ]222/[θ]208 [1, 6]: 1.06
Substance: WAUAUAUAUAUAUAUAU(PEG2)5RGDRGD(PEG2)5 [Example 110]

[θ]222/[θ]208 [1, 7]: 0.83
Substance: (PEG8)AUAUAUAUAUAUAUA(PEG8)2 [Example 120]

[θ]222/[θ]208 [1, 7]: 0.78
Substance: (PEG8)2AUAUAUAUAUAUAUA(PEG8)2 [Example 124]

[θ]222/[θ]208 [1, 7]: 1.18
Substance: (PEG8)3AUAUAUAUAUAUAUAUAUAUA(PEG8)3 [Example 126]

[θ]222/[θ]208 [1, 7]: 1.15
Substance: GSGAUAUAUAUAUAUAUAUAUAUAGSG [Example 116]

[θ]222/[θ]208 [1, 7]: 1.07
Substance: GSGSGAUAUAUAUAUAUAUAUAUAUAGSGSG [Example 117]

[θ]222/[θ]208 [1, 6]: 0.71
Substance: WAUAUAUAUAUAUAUGHHHHHHHHHHGRGDRGDRGDG [Example 107]

[θ]222/[θ]208 [1, 7]: 0.61
Substance: (PEG8)AUAUAUAUA(PEG8)2 [Example 119]

[θ]222/[θ]208 [1, 7]: 1.02
Substance: GSGSGSGSGAUAUAUAUAUAUAUAUAUAUAGSGSGSGSG [Example 118]

[θ]222/[θ]208 [1, 6]: 0.83
Substance: WAUAUAUAUAUAUAUAUGHHHHHHHHHHGRGDRGDRGDG [Example 108]

Reference: patent US20240424134A1, “PEPTIDE HAVING INDEPENDENTLY STABILIZED HYDROPHOBIC ALPHA HELIX, PEPTIDE COMPLEX COMPRISING SAME AND USES THEREOF” (UIF (University Industry Foundation), Yonsei University, priority 2022, published 2024)
